According to publication PMC9767416, “Discovery of small molecule mechanistic target of rapamycin inhibitors as anti-aging and anti-cancer therapeutics” (Frontiers in Aging Neuroscience, 2022):

Tests used:
[1] = Dissociation constants by spectrophotometric titration; format: physicochemical; settings: 20°C
Experimental: The spectrophotometric titration was used for dissociation constants’ determination, utilizing spectrophotometer Agilent Cary-60 (Agilent Technologies, CA, USA), pH meter WTW InoLab_IDS Multi 9430 (WTW, Czech Republic), and pH electrode SenTix® Mic (WTW, Czech Republic). Data were analyzed by GraphPadPrism 8.0 software (GraphPad Software, CA, USA). The analyzed samples were prepared by adding 20 μL of compound stock solution (2 mg/mL) and 20 μL of 0.1 M hydrochloric acid into the cuvette with ultrapure water (total volume 3.5 mL). The samples were titrated by 0.1 M sodium hydroxide at 20°C while acquiring absorption spectra (190–500 nm) at different pH values. Absorbance at the chosen wavelength was plotted as a function of pH. The inflection point in the given plot was used for pKa value determination.

[2] = test system: mTORC1 substrate p70 S6 kinase (Thr389 phosphorylation); assay: Immunoblot of phospho-p70 S6K (Thr389), mTORC1 activity in cells; format: cell-based, human; settings: BJ cells; 100 μM; 1 and 5 h
[3] = Shake-flask partition coefficient logP and distribution coefficient logD (pH 7.4); format: physicochemical; settings: shake-flask
Experimental: Before the initiation of the intended experiments, all solvents were mutually saturated at 21°C. […] For saturation, large stock bottles containing n-octanol and 12% of water/buffer or water/buffer and 12% of n-octanol were shaken for 30 mins on a mechanical shaker and subsequently left to stand on the bench overnight until the phases separated. Approximately 0.50 mg of tested substance was added to the test vessels alongside with 1:1 volume ratio of saturated solvents (250 μL). The test vessels were shaken on the mechanical shaker (Multi Reax, Heidolph Instruments, Schwabach, Germany) for 30 min at the highest speed and then centrifuged for phase separation (16.873 × g for 5 min; Eppendorf 5418 Microcentrifuge, Prague, Czech Republic). Both organic and aqueous phases were sampled for LC-MS analysis. UHPLC-DAD-MS (UHPLC Infinity II 1290, detection by DAD and QqQ 6470; Agilent Technologies, CA, USA; separation on Arion C18 polar column 100 × 2.1 mm, 2.1 μm; Chromservis, Czech Republic) was used for determination of the exact concentration of tested substances. The total quantity of substance (in both phases) was used for logP/logD values calculation.

[4] = test system: C57BL/6 (B6) male mice; assay: Blood counts in the tolerability study; format: in vivo; settings: mice, blood day 8; for Eos / HOT / MPV / Neu / PCT / PDW / RBC / RDW-CV / lvm / PLT / WBC / MCV / RDW-SD / HGB / MCHC / MCH / Mon: AVG; for PLT / WBC: in 10^9/L (unit assumed); for MCV / RDW-SD: in fL (unit assumed); for HGB / MCHC: in g/L (unit assumed); for MCH: in pg (unit assumed); for Mon: unit assumed
Experimental: (§1) Compounds were dissolved in 20 μL DMSO and completed into 200 μL with corn oil.
(§2) During the experiments, mice behavior and possible apparent signs of toxicity were monitored daily. The body weights were determined on days 0, 4, and 8. On day 8, blood (25 μL) was withdrawn using a capillary pipette containing anticoagulant (heparin) from the retroorbital sinus into EDTA-containing tubes. Basic hematological parameters were measured using the Mindray BC-5300 Vet. Mice were then killed, autopsied, and abdominal organs (spleen, liver, and kidney) were removed for visual examination and imaging by a digital camera. Single-cell suspensions from the spleens were prepared by homogenization through a cell strainer (70 μm; BD Biosciences, San Jose, CA, USA). Erythrocytes were osmotically lysed using ammonium chloride-potassium lysis buffer, and the cell suspensions were washed three times in the RPMI-1640 medium and used for further analysis by flow cytometry for selected cell populations.

[5] = test system: C57BL/6 (B6) male mice; assay: In vivo tolerability study (behaviour, signs of toxicity, body weight); settings: p.o. 5, 25 and 50 mg/kg body weight, days 0, 3, 5
Experimental: C57BL/6 (B6) male mice, 8–12 weeks old, were obtained from the Institute of Molecular Genetics, Prague, Czech Republic. Experimental protocols were approved by the Institutional Animal Care Committee of the Institute of Molecular Genetics, Prague.
as §1, §2

[6] = Solubility by nephelometry (water, buffer pH 7.4); format: physicochemical; settings: for logSpH 7.4: buffer pH 7.4; for Sol. (buffer 7.4): sodium phosphate buffer pH 7.4, nephelometry; for Sol. (H2O): ultrapure water, nephelometry; for logSH2O: water
Experimental: Compounds’ solubility was measured by the NEPHELOstar microplate instrument (BMG Labtech, Offenburg, Germany). Stock solutions were prepared by dissolving the tested compounds in ultrapure water or sodium phosphate buffer (pH 7.4) to obtain a concentration of 160 and 1,000 μg/mL. Each stock solution was sonicated at full power by Hielscher UP100H needle ultrasonic processor (Teltow, Germany) before loading into NEPHELOstar instrument injector A. Ultrapure water or sodium phosphate buffer was loaded into injector B. Compound was diluted in 48 wells in 0–160 or 0–1,000 μg/mL range and subsequently shook for 30 s. Each well was scanned with 80% laser power in matrix 3 × 3, beam width 2 mm, and obtained data were evaluated in GraphPad Prism 7.03 (GraphPad Software, San Diego, CA, USA) using segmental linear regression.

CC(C)n1nc(-c2cc3cc(O)ccc3[nH]2)c2c(N)ncnc21 [Torkinib, torkinib]
pKa1 [1]: 3.96 ± 0.02 | pKa2 [1]: 10.37 ± 0.18 | effect on Thr389 S6K phosphorylation [2]: inhibitory effect | logD ([3]; n-octanol/sodium phosphate buffer pH 7.4): 2.75 ± 0.06 | logP ([3]; n-octanol/water): 2.65 ± 0.02 | Eos ([4]; 5 mg/kg p.o. days 0, 3, 5): 0.04 | HOT ([4]; 5 mg/kg p.o. days 0, 3, 5): 0.49 | MPV ([4]; 5 mg/kg p.o. days 0, 3, 5): 5.33 | Neu ([4]; 5 mg/kg p.o. days 0, 3, 5): 0.99 | PCT ([4]; 5 mg/kg p.o. days 0, 3, 5): 3.59 | PDW ([4]; 5 mg/kg p.o. days 0, 3, 5): 14.57 | RBC ([4]; 5 mg/kg p.o. days 0, 3, 5): 9.25 10^12/L | RDW-CV ([4]; 5 mg/kg p.o. days 0, 3, 5): 0.14 | lvm ([4]; 5 mg/kg p.o. days 0, 3, 5): 8.67 | PLT ([4]; 5 mg/kg p.o. days 0, 3, 5): 690.67 | WBC ([4]; 5 mg/kg p.o. days 0, 3, 5): 10.43 | MCV ([4]; 5 mg/kg p.o. days 0, 3, 5): 53.73 | RDW-SD ([4]; 5 mg/kg p.o. days 0, 3, 5): 31.77 | HGB ([4]; 5 mg/kg p.o. days 0, 3, 5): 146.00 | MCHC ([4]; 5 mg/kg p.o. days 0, 3, 5): 296.67 | MCH ([4]; 5 mg/kg p.o. days 0, 3, 5): 15.97 | Mon ([4]; 5 mg/kg p.o. days 0, 3, 5): 0.73 10^9/L | Eos ([4]; 25 mg/kg p.o. days 0, 3, 5): 0.08 | HOT ([4]; 25 mg/kg p.o. days 0, 3, 5): 0.52 | MPV ([4]; 25 mg/kg p.o. days 0, 3, 5): 5.30 | Neu ([4]; 25 mg/kg p.o. days 0, 3, 5): 0.79 | PCT ([4]; 25 mg/kg p.o. days 0, 3, 5): 3.79 | PDW ([4]; 25 mg/kg p.o. days 0, 3, 5): 14.73 | RBC ([4]; 25 mg/kg p.o. days 0, 3, 5): 9.96 10^12/L | RDW-CV ([4]; 25 mg/kg p.o. days 0, 3, 5): 0.14 | lvm ([4]; 25 mg/kg p.o. days 0, 3, 5): 6.68 | PLT ([4]; 25 mg/kg p.o. days 0, 3, 5): 712.00 | WBC ([4]; 25 mg/kg p.o. days 0, 3, 5): 8.14 | MCV ([4]; 25 mg/kg p.o. days 0, 3, 5): 51.90 | RDW-SD ([4]; 25 mg/kg p.o. days 0, 3, 5): 29.23 | HGB ([4]; 25 mg/kg p.o. days 0, 3, 5): 154.00 | MCHC ([4]; 25 mg/kg p.o. days 0, 3, 5): 298.00 | MCH ([4]; 25 mg/kg p.o. days 0, 3, 5): 15.50 | Mon ([4]; 25 mg/kg p.o. days 0, 3, 5): 0.59 10^9/L | Eos ([4]; 50 mg/kg p.o. days 0, 3, 5): 0.04 | HOT ([4]; 50 mg/kg p.o. days 0, 3, 5): 0.53 | MPV ([4]; 50 mg/kg p.o. days 0, 3, 5): 5.43 | Neu ([4]; 50 mg/kg p.o. days 0, 3, 5): 1.25 | PCT ([4]; 50 mg/kg p.o. days 0, 3, 5): 4.73 | PDW ([4]; 50 mg/kg p.o. days 0, 3, 5): 14.67 | RBC ([4]; 50 mg/kg p.o. days 0, 3, 5): 9.95 10^12/L | RDW-CV ([4]; 50 mg/kg p.o. days 0, 3, 5): 0.14 | lvm ([4]; 50 mg/kg p.o. days 0, 3, 5): 6.32 | PLT ([4]; 50 mg/kg p.o. days 0, 3, 5): 873.67 | WBC ([4]; 50 mg/kg p.o. days 0, 3, 5): 8.70 | MCV ([4]; 50 mg/kg p.o. days 0, 3, 5): 53.27 | RDW-SD ([4]; 50 mg/kg p.o. days 0, 3, 5): 31.07 | HGB ([4]; 50 mg/kg p.o. days 0, 3, 5): 153.67 | MCHC ([4]; 50 mg/kg p.o. days 0, 3, 5): 290.33 | MCH ([4]; 50 mg/kg p.o. days 0, 3, 5): 15.50 | Mon ([4]; 50 mg/kg p.o. days 0, 3, 5): 1.09 10^9/L | blood count analysis, overall finding ([4]; p.o. 5, 25 and 50 mg/kg): no abnormal changes | signs of whole body or organ toxicities [5]: no apparent signs | logSpH 7.4 [6]: <−4.71 | logSpH 7.4 ([6]; listed as torkinib): < −4.60 | Sol. (buffer 7.4) [6]: <6 µg/mL | Sol. (buffer 7.4) ([6]; listed as torkinib): lower than 6 μg/mL | Sol. (H2O) [6]: <6 µg/mL | Sol. (H2O) ([6]; listed as torkinib): lower than 6 μg/mL | logSH2O [6]: <−4.71 | logSH2O ([6]; listed as torkinib): < −4.60
